Data: patent US20260297042A1, “BIARYLAMIDE DERIVATIVES AND THEIR USE AS PKMYT1 INHIBITORS” (CANCER RESEARCH TECHNOLOGY LIMITED, priority 2023, published 2026)

Legend:
[1] = molecular target: T1, Human PKMYT1 (Homo sapiens, UniProt Q99640); assay: PKMYT1 biochemical ADP-Glo enzymatic assay; conditions: ADP-Glo
T1 construct: Human PKMYT1 75-362 was cloned as a TEV cleavable 6xHis fusion; 6xHis (TEV cleavable) (cleaved yes); made in house; host or cells: bacterial cells
T1 sequence (Q99640 75-362): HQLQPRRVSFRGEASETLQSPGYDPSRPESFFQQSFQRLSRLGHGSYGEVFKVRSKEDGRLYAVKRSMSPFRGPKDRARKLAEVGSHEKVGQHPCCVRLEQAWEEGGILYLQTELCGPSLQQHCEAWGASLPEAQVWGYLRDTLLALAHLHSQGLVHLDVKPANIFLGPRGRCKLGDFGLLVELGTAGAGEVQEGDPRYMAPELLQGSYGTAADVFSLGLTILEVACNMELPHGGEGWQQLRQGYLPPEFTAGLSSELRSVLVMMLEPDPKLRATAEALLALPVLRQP
In short: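 Luminescent ADP-Glo Max read-out of ADP produced by 15 nM PKMYT1 (residues 75-362, bacterial, His-tag removed) from 500 µM ATP without peptide substrate. Reaction: 50 mM HEPES pH 7.5, 10 mM MgCl2, 1 mM EGTA, 0.01% Brij-35, 60 min, 26 °C. IC50 values fitted from 10-point curves.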

[2] = molecular target: T2, WEE1 (Homo sapiens, UniProt P30291); assay: Selectivity versus WEE1 assay (ADP-Glo enzymatic assay); assay type: biochemical; conditions: for IC50: ADP-Glo; for PKMYT1 vs. WEE1 selectivity: fold difference in selectivity for PKMYT1 over WEE1
T2 construct: purchased Thermo Fisher PR7373A
In short: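 ADP-Glo luminescence read-out after a 60 min reaction at 26° C, initiated by 30 µM ATP, with 15 nM enzyme in HEPES pH 7.5/MgCl2/EGTA/Brij-35 buffer containing 1% DMSO. Replicate IC50 values had to agree within 3-fold and fits needed r2 >0.9.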

[3] = test system: OVCAR 3 cells; assay: Cancer cell line proliferation assay, ATP-based cell viability (Cell Titre Glow), OVCAR 3 (CCNE1-amplified); conditions: KYSE30 (normal CCNE1) GI50 vs. OVCAR 3 (CCNE1-amplified) GI50
In short: (§1)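 GI50 values, the concentrations halving cell growth, were derived from ATP-based luminescence (Cell Titre Glo) after PKMYT1 inhibitor exposure. Cells tested were OVCAR 3, an ovarian line with amplified CCNE1, and KYSE-30, which has normal CCNE1.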

[4] = test system: KYSE-30 cells; assay: Cancer cell line proliferation assay, ATP-based cell viability (Cell Titre Glow), KYSE-30 (normal CCNE1); conditions: Homo sapiens, KYSE-30 cells (normal CCNE1), concentration that achieves 50% cell growth proliferation inhibition, read-out: KYSE30 Gl50
In short: as §1

[5] = molecular target: T3, Cellular PKMYT1 Biomarker CDK1 pT14 (Homo sapiens, UniProt Q99640); assay: Inhibition of cellular PKMYT1 biomarker CDK1 pT14 in OVCAR 3 cells (immunoblot); assay type: cell-based; conditions: 20 hours incubation
T3 construct: read-out CDK1 phospho-T14 immunoblot
T3 sequence (Q99640 1-499): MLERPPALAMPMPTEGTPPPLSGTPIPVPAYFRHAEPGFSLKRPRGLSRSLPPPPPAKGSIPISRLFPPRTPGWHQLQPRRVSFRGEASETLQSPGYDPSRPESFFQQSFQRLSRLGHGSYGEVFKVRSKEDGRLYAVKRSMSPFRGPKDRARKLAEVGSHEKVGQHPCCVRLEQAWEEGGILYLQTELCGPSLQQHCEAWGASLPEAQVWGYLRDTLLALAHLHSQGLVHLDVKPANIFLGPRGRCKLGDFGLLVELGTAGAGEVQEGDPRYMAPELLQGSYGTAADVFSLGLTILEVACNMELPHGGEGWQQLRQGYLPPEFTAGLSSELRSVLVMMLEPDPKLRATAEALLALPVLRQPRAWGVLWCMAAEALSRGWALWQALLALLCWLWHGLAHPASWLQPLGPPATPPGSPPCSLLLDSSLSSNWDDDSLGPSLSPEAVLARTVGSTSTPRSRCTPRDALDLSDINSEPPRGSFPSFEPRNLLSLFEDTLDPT
Method: To determine compound PKMYT1 IC50 in a cellular assay, OVCAR 3 cells were incubated at 37° C. in 5% CO2 atmosphere. The cells were maintained in RPMI medium supplemented with 20% foetal bovine serum, 1X non essential amino acids, 1 mM sodium pyruvate, Glutamax and insulin. Cells were seeded into 12-well plates at low density (50,000-200,000 cells per well), grown to confluence (~350-400,000 cells per well) and then treated with a range of concentrations of PKMYT1 inhibitors. The cells were incubated 20 hours and then harvested into 1X Laemmli Sample Buffer (BIORAD) without 2-mercaptoethanol, heated to 95° C. for 5 min, centrifuged and sonicated using a microprobe for 15 sec, 21W to shear the DNA.
The samples were analysed by immunoblot on a Jess Automated Western Blot System (BioTechne). The samples were separated using the 12-230 kDa Separation Module (BioTechne,) and blotted using an anti-CDK1 phospho T14 antibody (Abcam, #ab58509) and an anti-vinculin antibody (Abcam, #126002). Specific binding was detected by fluorescence using the Anti-Rabbit Detection Module (BioTechne, #DM-001), quantified using Compass for Simple Western software, and IC50 values were calculated by regression analysis in GraphPad Prism.

[6] = PKMYT1 kinase domain 15 nM, banded values
[7] = 15 nM PKMYT1 kinase domain, 500 µM ATP, 60 minutes at 26° C., banded
[8] = 15 nM WEE1, 60 minutes at 26° C., banded
[9] = banded, ">N" = at least in this band but could be higher

T2 sequence (P30291 whole entry): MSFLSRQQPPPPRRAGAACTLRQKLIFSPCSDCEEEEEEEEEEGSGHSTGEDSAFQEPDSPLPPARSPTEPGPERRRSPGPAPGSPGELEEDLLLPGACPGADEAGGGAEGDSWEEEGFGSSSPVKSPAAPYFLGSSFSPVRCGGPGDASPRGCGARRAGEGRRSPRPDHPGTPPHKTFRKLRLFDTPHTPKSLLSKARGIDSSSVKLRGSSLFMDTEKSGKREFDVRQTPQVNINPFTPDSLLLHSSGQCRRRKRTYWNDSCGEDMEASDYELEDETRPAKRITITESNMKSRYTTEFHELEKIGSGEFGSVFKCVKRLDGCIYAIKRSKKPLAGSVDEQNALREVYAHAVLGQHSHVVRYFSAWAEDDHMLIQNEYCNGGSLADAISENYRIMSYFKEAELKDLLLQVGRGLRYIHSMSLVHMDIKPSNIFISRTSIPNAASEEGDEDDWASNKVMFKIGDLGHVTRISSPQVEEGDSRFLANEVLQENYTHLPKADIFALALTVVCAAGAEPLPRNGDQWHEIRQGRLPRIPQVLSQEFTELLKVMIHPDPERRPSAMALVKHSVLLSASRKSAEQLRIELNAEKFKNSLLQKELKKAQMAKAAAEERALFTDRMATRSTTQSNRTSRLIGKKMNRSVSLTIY

| Compound | IC50 [1, 6] [nM] | IC50 ([2]; WEE1 15 nM, banded values) [nM] | PKMYT1 vs. WEE1 selectivity ([2]; banded) | Selectivity ratio KYSE30 Gl50 vs. OVCAR3 Gl50 [3] | GI50 [4] [nM] | IC50 [5] [nM] | IC50 [1, 7] [nM] | IC50 [2, 8] [nM] | PKMYT1 vs. WEE1 selectivity [2, 9] |
| --- | --- | --- | --- | --- | --- | --- | --- | --- | --- |
| Cc1ccnc(Nc2ncc(C(=O)Nc3c(C)ccc(O)c3C)s2)c1F [BAA-424, 2-((3-fluoro-4-methylpyridin-2-yl)amino)-N-(3-hydroxy-2,6-dimethylphenyl)thiazole-5-carboxamide] | < 50 | > 11000 | Y (1000-5000 fold) | Y (>20 fold) | > 5000 | < 100 |  |  |  |
| Cc1cn(CC(=O)N2CCCC2C(F)(F)F)nc1Nc1ncc(C(=O)Nc2c(C)ccc(O)c2C)s1 (centres unmarked) [BAA-493, N-(3-hydroxy-2,6-dimethylphenyl)-2-((4-methyl-1-(2-oxo-2-(2-(trifluoromethyl)pyrrolidin-1-yl)ethyl)-1H-pyrazol-3-yl)amino)thiazole-5-carboxamide] | < 50 | 1000 to 11000 | X (100-<1000 fold) | Y (>20 fold) | > 5000 | < 100 |  |  |  |
| CCN(CC)C(=O)C(C)n1cc(C)c(Nc2ncc(C(=O)Nc3c(C)ccc(O)c3C)s2)n1 (centres unmarked) [BAA-510, 2-((1-(1-(diethylamino)-1-oxopropan-2-yl)-4-methyl-1H-pyrazol-3-yl)amino)-N-(3-hydroxy-2,6-dimethylphenyl)thiazole-5-carboxamide] | < 50 | 1000 to 11000 | X (100-<1000 fold) | Y (>20 fold) | > 5000 | < 100 |  |  |  |
| Cc1ccc(O)c(C)c1NC(=O)c1cnc(Nc2cccc(CC(=O)N(C3CC3)C3CC3)n2)s1 [BAA-427, 2-((6-(2-(Dicyclopropylamino)-2-oxoethyl)pyridin-2-yl)amino)-N-(3-hydroxy-2,6-dimethylphenyl)thiazole-5-carboxamide] | < 50 | > 11000 | Z (>5000 fold) | Y (>20 fold) | > 5000 | < 100 |  |  |  |
| Cc1ccc(O)c(C)c1NC(=O)c1cnc(Nc2cccc(CC(=O)N(C)C3CC3)n2)s1 [BAA-428, 2-((6-(2-(Cyclopropyl(methyl)amino)-2-oxoethyl)pyridin-2-yl)amino)-N-(3-hydroxy-2,6-dimethylphenyl)thiazole-5-carboxamide] | < 50 |  |  | Y (>20 fold) | > 5000 | < 100 |  |  |  |
| Cc1ccc(N)nc1Nc1ncc(C(=O)Nc2c(C)ccc(O)c2C)s1 [BAA-337, 2-((6-amino-3-methylpyridin-2-yl)amino)-N-(3-hydroxy-2,6-dimethylphenyl)thiazole-5-carboxamide] |  |  |  | Y (>20 fold) | 500 to 5000 | < 100 | < 50 | 1000 to 11000 | X (100-<1000 fold) |
| Cc1ccc(O)c(C)c1NC(=O)c1cnc(Nc2nn(CC#N)cc2Br)s1 [BAA-586, 2-((4-bromo-1-(cyanomethyl)-1H-pyrazol-3-yl)amino)-N-(3-hydroxy-2,6-dimethylphenyl)thiazole-5-carboxamide] | < 50 | 50 to 1000 | W (10-<100 fold) | X (3-20 fold) | 500 to 5000 | < 100 |  |  |  |
| Cc1cn(CCF)nc1Nc1ncc(C(=O)Nc2c(C)ccc(O)c2Br)s1 [BAA-565, N-(2-bromo-3-hydroxy-6-methylphenyl)-2-((1-(2-fluoroethyl)-4-methyl-1H-pyrazol-3-yl)amino) thiazole-5-carboxamide] | < 50 | 1000 to 11000 | X (100-<1000 fold) | Y (>20 fold) | > 5000 | < 100 |  |  |  |
| Cc1ccc(NC(=O)C(C)(C)O)nc1Nc1ncc(C(=O)Nc2c(C)ccc(O)c2C)s1.Cl [BAA-342, N-(3-Hydroxy-2,6-dimethylphenyl)-2-((6-(2-hydroxy-2-methylpropanamido)-3-methylpyridin-2-yl)amino)thiazole-5-carboxamide hydrochloride] |  |  |  | Y (>20 fold) | > 5000 | < 100 | < 50 | > 11000 | X (100-<1000 fold) |
| Cc1ccc(O)c(C)c1NC(=O)c1cnc(Nc2cccc(N3CCC(F)(F)CC3)n2)s1 [BAA-314, 2-((6-(4,4-difluoropiperidin-1-yl)pyridin-2-yl)amino)-N-(3-hydroxy-2,6-dimethylphenyl)thiazole-5-carboxamide] |  |  |  | Y (>20 fold) | 500 to 5000 | < 100 | 50 to 1000 | 1000 to 11000 | W (10-<100 fold) |
| CCOc1ccc(Nc2ncc(C(=O)Nc3c(C)ccc(O)c3C)s2)nc1C [BAA-430, 2-((5-ethoxy-6-methylpyridin-2-yl)amino)-N-(3-hydroxy-2,6-dimethylphenyl)thiazole-5-carboxamide] | < 50 | > 11000 | Y (1000-5000 fold) | Y (>20 fold) | > 5000 | < 100 |  |  |  |
| Cc1cn(CC(=O)N2CCC(C(F)(F)F)C2)nc1Nc1ncc(C(=O)Nc2c(C)ccc(O)c2C)s1 (centres unmarked) [BAA-504, N-(3-hydroxy-2,6-dimethylphenyl)-2-((4-methyl-1-(2-oxo-2-(3-(trifluoromethyl)pyrrolidin-1-yl)ethyl)-1H-pyrazol-3-yl)amino)thiazole-5-carboxamide] | < 50 | 1000 to 11000 | X (100-<1000 fold) | Y (>20 fold) | > 5000 | 100 to 1000 |  |  |  |
| Cc1cc(Nc2ncc(C(=O)Nc3c(C)ccc(O)c3C)s2)nc(N2CCC(F)(F)CC2)n1 [BAA-313, 2-((2-(4,4-difluoropiperidin-1-yl)-6-methylpyrimidin-4-yl)amino)-N-(3-hydroxy-2,6-dimethylphenyl)thiazole-5-carboxamide] |  |  |  | Y (>20 fold) | 500 to 5000 | < 100 | 50 to 1000 | > 11000 | X (100-<1000 fold) |
| Cc1cn(CC(=O)N2CCCC2)nc1Nc1ncc(C(=O)Nc2c(C)cc(Cl)c(O)c2C)s1 [BAA-553, N-(4-chloro-3-hydroxy-2,6-dimethylphenyl)-2-((4-methyl-1-(2-oxo-2-(pyrrolidin-1-yl)ethyl)-1H-pyrazol-3-yl)amino) thiazole-5-carboxamide] | 50 to 1000 | > 11000 | X (100-<1000 fold) |  |  | 100 to 1000 |  |  |  |
